Laboratory results reported in patent publication US20090170880A1, “Methods and Means for the Treatment of Cancer” (priority 2007, published 2009).
Entries after “also recorded” stand apart in the source; their conditions may differ.

Tests used:
[1] = tested on: intracranial Mel57-luc tumor xenografts; test: Efficacy against intracranial Mel57-luc tumor xenografts; assay type: in vivo, nude mice
Protocol: Intracranial Mel57-luc (luciferase transfected subline) tumor xenografts in wild-type nude mice (WT) and mdr1ab knockout nude mice (MDR) were established according to the protocol below (see Kemper et al, Eur J Cancer 42:3294-3303, 2006).
The Mel57 cell line (University Medical Centre, Nijmegen, The Netherlands) is a human melanoma cell line and was cultured in MEM (Life Technologies Inc., Breda, The Netherlands) supplemented with 10% foetal calf serum, non-essential amino acids, streptomycin, penicillin and sodium pyruvate (all Life Technologies), and incubated at 37° C. and 5% CO2 in humidified air. The cell line was further transfected by standard protocols with lipofectamine using a pBS vector containing a β-actin driven luciferase gene coupled via an internal ribosome […] to GFP. After expansion, GFP bright cells were sorted to single cells by FACS, expanded and sublines tested for luciferase expression by an in vitro bioluminescence assay (Promega, Benelux BV, Leiden, The Netherlands). Three to five sublines showing the highest luminescence activity were tested in vivo for tumour take and intracranial growth behaviour. To retrieve tumour cells for injection, the cell culture was trypsinised (trypsin 0.05%; EDTA 0.02%, Life Technologies), washed two times with Hanks Balanced Saline Solution (HBSS, Life Technologies Inc.), counted and resuspended in an appropriate volume of HBSS. The single cell suspension was kept on ice until injection. […]
Mel57-luc cells (100,000 cells/2 μl) were injected stereotactically in the brain as described in detail in Kemper et al^14. […] The amount of bioluminescence in each animal was calculated relative to the first measurement when therapy was initiated (arbitrarily set at 100%) and was log converted prior to data analysis. Tumor volume was measured by bioluminescence activity (see Kemper et al, Eur J Cancer 42:3294-3303, 2006).

murine P-gp (Mdr1a) = molecular target: T1, murine P-gp (Mdr1a) (Mus musculus, UniProt P21447); test: Transwell transport of temozolomide, LLC-Mdr1a cells; assay type: in vitro ADME; conditions: 40 μg/ml, LLC-Mdr1a versus LLC-PK1 monolayers
T1 construct: expressed in transfected cells; host or cells: LLC-PK1 (porcine kidney) cells transduced with murine Mdr1a
T1 sequence (P21447 whole entry): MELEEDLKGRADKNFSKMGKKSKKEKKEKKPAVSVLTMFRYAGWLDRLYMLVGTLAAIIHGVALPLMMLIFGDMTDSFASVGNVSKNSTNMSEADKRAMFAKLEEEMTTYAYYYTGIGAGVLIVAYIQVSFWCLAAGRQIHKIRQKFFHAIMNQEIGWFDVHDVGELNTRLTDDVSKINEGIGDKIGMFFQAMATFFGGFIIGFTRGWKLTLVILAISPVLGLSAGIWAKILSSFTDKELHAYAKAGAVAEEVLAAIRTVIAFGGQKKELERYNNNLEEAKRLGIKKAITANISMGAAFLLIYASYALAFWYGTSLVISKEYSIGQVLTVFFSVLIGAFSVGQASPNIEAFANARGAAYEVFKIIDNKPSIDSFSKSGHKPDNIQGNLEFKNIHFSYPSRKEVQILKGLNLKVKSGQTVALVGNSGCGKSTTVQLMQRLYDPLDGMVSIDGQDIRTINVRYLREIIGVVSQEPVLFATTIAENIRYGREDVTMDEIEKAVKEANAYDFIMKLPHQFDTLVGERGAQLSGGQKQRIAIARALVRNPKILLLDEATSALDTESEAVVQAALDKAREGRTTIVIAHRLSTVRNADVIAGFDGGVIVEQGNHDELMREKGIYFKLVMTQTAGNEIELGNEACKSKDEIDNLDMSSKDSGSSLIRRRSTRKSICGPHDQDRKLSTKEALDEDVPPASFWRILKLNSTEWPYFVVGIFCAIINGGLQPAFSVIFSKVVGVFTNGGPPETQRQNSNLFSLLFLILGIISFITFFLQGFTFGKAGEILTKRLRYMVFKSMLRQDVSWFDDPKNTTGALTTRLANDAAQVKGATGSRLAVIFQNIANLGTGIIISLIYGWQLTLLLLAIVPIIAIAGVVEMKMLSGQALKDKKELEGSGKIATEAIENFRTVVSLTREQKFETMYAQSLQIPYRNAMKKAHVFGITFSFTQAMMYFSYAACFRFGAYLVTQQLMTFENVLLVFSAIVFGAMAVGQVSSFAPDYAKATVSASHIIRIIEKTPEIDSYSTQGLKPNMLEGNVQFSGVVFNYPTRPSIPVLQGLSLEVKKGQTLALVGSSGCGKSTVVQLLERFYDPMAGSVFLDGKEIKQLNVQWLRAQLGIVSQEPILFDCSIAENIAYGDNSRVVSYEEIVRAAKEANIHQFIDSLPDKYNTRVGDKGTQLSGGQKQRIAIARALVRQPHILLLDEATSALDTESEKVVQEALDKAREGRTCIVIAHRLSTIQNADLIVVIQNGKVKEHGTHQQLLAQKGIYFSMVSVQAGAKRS
Protocol: (§1) The parental LLC pig-kidney (PK1) cell line and sublines transduced with murine Mdr1a or human MDR1 (12) and the parental Madine Darby Canine Kidney (MDCK) and murine Bcrp1 or human BCRP transduced sublines (13) were seeded on Transwell microporous polycarbonate membrane filters (3.0 μm pore size, 24 mm diameter; Costar Corning, N.Y., USA) at a density of 1×10^6 cells per well in 2 ml of MEM medium (Invitrogen Corporation, Carlsbad, Calif.) containing 10% v/v fetal calf serum. Cells were incubated at 37° C. in 5% CO2 for three days with one medium replacement after the first day. Two hours before the start of the experiment the medium in both compartments was replaced with 2 ml of OptiMEM medium (InVitrogen Corp.). At the start of the experiment the medium in the apical or basolateral compartment was replaced with 2 ml of freshly prepared OptiMEM medium containing 40 μg/ml of temozolomide. […] Zosuquidar (LY335979, 5 μM) was always added to the medium when doing experiments with MDCK cell lines to inhibit endogenous canine P-gp. Samples of 50 μl were collected every 30 min, for up to 2 h after start of the experiment. Because temozolomide is instable in medium at 37° C., we replaced one ml of the donor compartment by a freshly prepared aliquot every 30 min. […]

[2] = Stability of temozolomide in culture medium; assay type: physicochemical
human P-gp (MDR1) = molecular target: T2, human P-gp (MDR1) (Homo sapiens, UniProt P08183); test: Transwell transport of temozolomide, LLC-MDR1 cells; assay type: in vitro ADME; conditions: 40 μg/ml, LLC-MDR1 versus LLC-PK1 monolayers
T2 construct: expressed in transfected cells; host or cells: LLC-PK1 (porcine kidney) cells transduced with human MDR1
T2 sequence (P08183 whole entry): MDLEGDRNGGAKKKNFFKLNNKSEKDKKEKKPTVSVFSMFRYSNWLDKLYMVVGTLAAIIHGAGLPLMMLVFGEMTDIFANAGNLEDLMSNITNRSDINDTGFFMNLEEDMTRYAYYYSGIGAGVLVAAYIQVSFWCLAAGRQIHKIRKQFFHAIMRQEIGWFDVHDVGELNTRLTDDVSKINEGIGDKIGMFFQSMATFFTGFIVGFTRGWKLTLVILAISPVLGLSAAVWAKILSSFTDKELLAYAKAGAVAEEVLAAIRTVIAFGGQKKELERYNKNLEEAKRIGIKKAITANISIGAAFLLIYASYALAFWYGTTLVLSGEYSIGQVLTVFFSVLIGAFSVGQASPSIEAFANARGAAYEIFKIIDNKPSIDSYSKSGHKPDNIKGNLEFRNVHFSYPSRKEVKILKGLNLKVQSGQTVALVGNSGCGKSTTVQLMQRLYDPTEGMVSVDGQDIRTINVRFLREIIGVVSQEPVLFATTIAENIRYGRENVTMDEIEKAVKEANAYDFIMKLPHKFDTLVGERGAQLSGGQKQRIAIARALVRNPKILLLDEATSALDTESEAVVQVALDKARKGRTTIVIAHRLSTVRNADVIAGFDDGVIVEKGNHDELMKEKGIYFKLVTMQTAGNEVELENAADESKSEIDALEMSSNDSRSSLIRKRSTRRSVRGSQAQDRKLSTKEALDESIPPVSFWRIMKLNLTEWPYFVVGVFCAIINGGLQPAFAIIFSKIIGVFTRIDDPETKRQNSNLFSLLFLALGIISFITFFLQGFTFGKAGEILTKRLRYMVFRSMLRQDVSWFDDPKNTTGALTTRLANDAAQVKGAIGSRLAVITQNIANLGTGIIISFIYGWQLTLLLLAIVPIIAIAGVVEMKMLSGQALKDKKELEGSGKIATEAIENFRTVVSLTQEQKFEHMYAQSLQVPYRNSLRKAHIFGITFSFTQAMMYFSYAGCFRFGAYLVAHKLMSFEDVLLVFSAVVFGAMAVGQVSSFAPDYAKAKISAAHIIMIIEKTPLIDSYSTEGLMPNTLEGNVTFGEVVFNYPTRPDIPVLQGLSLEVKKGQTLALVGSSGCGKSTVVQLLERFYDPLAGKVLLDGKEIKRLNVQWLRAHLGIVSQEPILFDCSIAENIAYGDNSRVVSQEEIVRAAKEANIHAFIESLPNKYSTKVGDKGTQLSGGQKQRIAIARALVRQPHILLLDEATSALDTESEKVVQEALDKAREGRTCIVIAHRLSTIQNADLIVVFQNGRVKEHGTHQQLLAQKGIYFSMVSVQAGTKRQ
Protocol: as §1

In the case of `Cn1nnc2c(C(N)=O)ncn2c1=O` [temozolomide, 8-carbamoyl-3-methyl-[3H]-imidazo[5,1-d]-1,2,3,5-tetrazin-4-one], the “response to temozolomide, P-gp (Mdr1ab) knockout versus wild-type nude mice” value ([1]; oral 100 mg/kg for 5 consecutive days, bioluminescence, 100 mg/kg) is reported as “greater reduction in tumor volume; also recorded: respond better”, the “difference in efficacy, Bcrp1/Mdr1ab knockout versus wild-type nude mice” value ([1]; oral 100 mg/kg/day×5 from day 7, bioluminescence) is reported as “more pronounced” and the “transport of temozolomide by murine P-gp” value (murine P-gp (Mdr1a)) is reported as “very limited if any evidence for transport”. For the same compound, the “transport of temozolomide by murine P-gp” value (murine P-gp (Mdr1a); listed as Temozolomide) was “not readily detected”, the half-life ([2]; culture medium at 37° C.) was roughly 30 min and the degradation ([2]; pH 7.4, in 30 min) was “about 50%”. The “transport of temozolomide by human P-gp” value (human P-gp (MDR1)) was “very limited if any evidence for transport” and the “transport of temozolomide by human P-gp” value (human P-gp (MDR1); listed as Temozolomide) was “not readily detected”.
